# Test results as given in publication PMC8691750, “Euphorbia Factor L2 ameliorates the Progression of K/BxN Serum-Induced Arthritis by Blocking TLR7 Mediated IRAK4/IKKβ/IRF5 and NF-kB Signaling Pathways” (Frontiers in Pharmacology, 2021).
# Several values for one entry are separate records, joined by “and”; a condition that tells them apart may be missing. Equal entries are not always repeated.
# Test system: TLR signalling pathway genes
# Assay: Toll-like Receptor Pathway PCR array of ankles
# Format: in vivo, C57BL/6 mice
# Settings: for S40/SIA (fold change) / log2(fold change) S40/SIA: S40 group vs SIA group
# Experimental: Total RNA was isolated from the right ankles using the TRIzol Reagent (Invitrogen) and purified with RNeasy Mini Kit and RNase-Free DNase Set (Qiagen). RNA quality was determined using a spectrophotometer and was reversely transcribed using Wcgene® mRNA cDNA kit. The complementary DNA was used on the Toll-like Receptor Pathway PCR Array plate (Wcgene® biotech, China).
# [1] = ankles of STA mice, single-animal samples S401-S405
# [2] = ankles of STA mice, single-animal samples S401-S405, relative to GAPDH
# [3] = ankles, STA mice + EFL2 i.p., individual mice EFL2-1 to EFL2-4
# [4] = ankles, EFL2 40 mg/kg i.p. treated STA mice versus STA mice
compound,measurement,setting,value
"C=C1C(OC(=O)c2ccccc2)CC2C(C=C(C)C(=O)C3(OC(C)=O)CC(C)C(OC(=O)c4ccccc4)C3C1OC(C)=O)C2(C)C (centres unmarked) [EFL2, Euphorbia factor L2]",S40/SIA (fold change),Tlr8 mRNA,0.1573
same,log2(fold change) S40/SIA,Tlr8 mRNA,-2.668
same,S40/SIA (fold change),Tlr9 mRNA,0.05745
same,log2(fold change) S40/SIA,Tlr9 mRNA,-4.122
same,S40/SIA (fold change),Tnf mRNA,0.271
same,log2(fold change) S40/SIA,Tnf mRNA,-1.884
same,S40/SIA (fold change),Tnfaip3 mRNA,0.2367
same,log2(fold change) S40/SIA,Tnfaip3 mRNA,-2.079
same,S40/SIA (fold change),Tollip mRNA,0.6335
same,log2(fold change) S40/SIA,Tollip mRNA,-0.6586
same,S40/SIA (fold change),Traf6 mRNA,0.511
same,log2(fold change) S40/SIA,Traf6 mRNA,-0.9687
same,S40/SIA (fold change),Ube2v1 mRNA,0.4284
same,log2(fold change) S40/SIA,Ube2v1 mRNA,-1.223
same,Rel Cт,[1],30.17 and 31.86 and 31.19
same,Rela Cт,[1],27.60 and 28.97 and 29.92
same,Ripk2 Cт,[1],31.20 and 31.97 and 31.38
same,Tbk1 Cт,[1],35.01 and 33.84 and 30.91
same,Tbp Cт,[1],32.79 and 35.04 and 35.08 and 35.26
same,Ticam1 Cт,[1],30.63 and 31.57 and 31.92 and 31.40
same,Ticam2 Cт,[1],31.98 and 32.33 and 32.54 and 32.28
same,Tirap Cт,[1],31.54 and 33.23 and 32.87
same,Tlr1 Cт,[1],31.47 and 31.48 and 31.36 and 33.05
same,Tlr2 Cт,[1],29.79 and 30.45 and 30.70
same,Tlr3 Cт,[1],31.62 and 33.01 and 32.92 and 28.89
same,Tlr4 Cт,[1],29.41 and 30.97 and 30.43 and 30.84
same,Tlr5 Cт,[1],33.11 and 33.16 and 33.55 and 34.74
same,Tlr6 Cт,[1],32.61 and 34.42 and 28.05
same,Tlr7 Cт,[1],33.17 and 34.60 and 34.75
same,Tlr8 Cт,[1],31.72 and 32.87
same,Tlr9 Cт,[1],33.32 and 37.49
same,Tnf Cт,[1],33.75 and 35.02 and 34.91
same,Tnfaip3 Cт,[1],31.00 and 33.42 and 32.49 and 32.20
same,Tnfrsf1a Cт,[1],27.55 and 28.63 and 28.76
same,Tollip Cт,[1],29.42 and 30.42 and 30.55
same,Tradd Cт,[1],31.88 and 32.32 and 32.17 and 32.45
same,Traf6 Cт,[1],30.31 and 30.69 and 31.10 and 30.54
same,Ube2n Cт,[1],27.18 and 28.39 and 28.43 and 28.55
same,Ube2v1 Cт,[1],26.90 and 29.51 and 28.01 and 27.92
same,Rel fold-GAPDH,[2],0.005407 and 0.004928 and 0.005486
same,Ripk2 fold-GAPDH,[2],0.002639 and 0.004565 and 0.002897
same,Tlr2 fold-GAPDH,[2],0.007046 and 0.01307 and 0.007729
same,Tlr8 fold-GAPDH,[2],0.001839 and 0.001034
same,Tnf fold-GAPDH,[2],0.0004529 and 0.0005528 and 0.0004186
same,Tnfaip3 fold-GAPDH,[2],0.003028 and 0.001676 and 0.002239 and 0.001643
same,Tollip fold-GAPDH,[2],0.009094 and 0.01333 and 0.008592
same,Becn1 relative expression to GAPDH,[3],0.001891 and 0.007192 and 0.004096
same,Btk relative expression to GAPDH,[3],0.001831 and 0.004678 and 0.001063 and 0.002403
same,Casp8 relative expression to GAPDH,[3],0.01358 and 0.009475 and 0.01634
same,Ccl2 relative expression to GAPDH,[3],0.00629 and 0.0002036 and 0.01529
same,Ccl11 relative expression to GAPDH,[3],0.008836 and 0.01327 and 0.005579 and 0.01036
same,Cd86 relative expression to GAPDH,[3],0.0005777 and 0.0007714 and 0.0003428 and 0.0007215
same,Chuk relative expression to GAPDH,[3],0.01087 and 0.008829 and 0.008767
same,Clec4e relative expression to GAPDH,[3],0.002249 and 0.0004993 and 4.1493e-5 and 0.0002637
same,Cxcl10 relative expression to GAPDH,[3],2.1064e-5
same,Elk1 relative expression to GAPDH,[3],0.005652 and 0.006734 and 0.002589 and 0.006009
same,Fadd relative expression to GAPDH,[3],0.0009207 and 0.00158 and 0.0009332 and 0.001977
same,Hras1 relative expression to GAPDH,[3],0.02746 and 0.02268 and 0.01475 and 0.02419
same,Hspd1 relative expression to GAPDH,[3],0.02518 and 0.003019 and 0.01313 and 0.02796
same,IRF5 relative expression to GAPDH,[3],0.004692 and 0.004033 and 0.001353 and 0.004631
same,Il1b relative expression to GAPDH,[3],0.0009616 and 0.0008 and 0.0006699 and 0.005996
same,Il6 relative expression to GAPDH,[3],0.0008677 and 0.0003997 and 0.0006556 and 0.002971
same,Il10 relative expression to GAPDH,[3],0.0002257 and 7.048e-5 and 9.932e-5 and 0.0001425
same,Ilr1 relative expression to GAPDH,[3],0.01561 and 0.01023 and 0.00774 and 0.01383
same,Irak2 relative expression to GAPDH,[3],0.004831 and 0.004355 and 0.002516 and 0.003024
same,Irak3 relative expression to GAPDH,[3],0.02176 and 0.01462 and 0.00868 and 0.01639
same,Irf1 relative expression to GAPDH,[3],0.008232 and 0.006938
same,Irf3 relative expression to GAPDH,[3],0.01143 and 0.004857 and 0.01116
same,Jun relative expression to GAPDH,[3],0.0443 and 0.03642 and 0.03036 and 0.04078
same,Ly96 relative expression to GAPDH,[3],0.008818 and 0.008037 and 0.003545 and 0.00648
same,Map2k4 relative expression to GAPDH,[3],0.009032 and 0.01171 and 0.005161 and 0.006054
same,Myd88 relative expression to GAPDH,[3],0.0089 and 0.006533 and 0.004478 and 0.009066
same,Nfkb2 relative expression to GAPDH,[3],0.008129 and 0.004372 and 0.004079 and 0.005983
same,Nfkbia relative expression to GAPDH,[3],0.03111 and 0.02056 and 0.01675 and 0.03064
same,Nfkbib relative expression to GAPDH,[3],0.005737 and 0.004539 and 0.002397 and 0.00388
same,Nr2c2 relative expression to GAPDH,[3],0.009954 and 0.006912 and 0.004742 and 0.008167
same,Peli1 relative expression to GAPDH,[3],0.02035 and 0.01296 and 0.0006428 and 0.01623
same,Pglyrp1 relative expression to GAPDH,[3],0.0004159 and 0.002383 and 0.001422
same,Ptgs2 relative expression to GAPDH,[3],0.000397 and 0.0002674 and 0.0003018 and 0.001434
same,Rel relative expression to GAPDH,[3],0.004928 and 0.005486 and 0.005407
same,Ticam1 relative expression to GAPDH,[3],0.006005 and 0.003329 and 0.002855 and 0.003921
same,Tlr2 relative expression to GAPDH,[3],0.01307 and 0.007729 and 0.007046
same,Tlr3 relative expression to GAPDH,[3],0.002217 and 0.00166 and 0.01628 and 0.001979
same,Tlr4 relative expression to GAPDH,[3],0.00914 and 0.009306 and 0.004225 and 0.009146
same,Tlr5 relative expression to GAPDH,[3],0.001998 and 0.001071 and 0.0002832 and 0.0007049
same,Tlr7 relative expression to GAPDH,[3],0.0007393 and 0.00028 and 0.0006762
same,Tlr8 relative expression to GAPDH,[3],0.001034 and 0.001839
same,Tlr9 relative expression to GAPDH,[3],9.931e-5 and 0.0006069
same,Tnf relative expression to GAPDH,[3],0.0005528 and 0.0004186 and 0.0004529
same,Tnfaip3 relative expression to GAPDH,[3],0.001676 and 0.002239 and 0.001643 and 0.003028
same,Tollip relative expression to GAPDH,[3],0.01333 and 0.008592 and 0.009094
same,Traf6 relative expression to GAPDH,[3],0.01108 and 0.005865 and 0.005186 and 0.004909
same,Ube2v1 relative expression to GAPDH,[3],0.02505 and 0.04987 and 0.0319 and 0.05212
same,Becn1 fold change S40/SIA,[4],0.2727
same,Btk fold change S40/SIA,[4],0.3155
same,Casp8 fold change S40/SIA,[4],0.2393
same,Ccl2 fold change S40/SIA,[4],0.0326
same,Ccl11 fold change S40/SIA,[4],1.864
same,Cd86 fold change S40/SIA,[4],0.1925
same,Chuk fold change S40/SIA,[4],0.3313
same,Clec4e fold change S40/SIA,[4],0.0859
same,Cxcl10 fold change S40/SIA,[4],0.002337
same,Elk1 fold change S40/SIA,[4],0.3565
same,Fadd fold change S40/SIA,[4],0.1995
same,Hras1 fold change S40/SIA,[4],0.4915
same,Hspd1 fold change S40/SIA,[4],0.2339
same,IRF5 fold change S40/SIA,[4],0.3677
same,Il1b fold change S40/SIA,[4],0.0229
same,Il6 fold change S40/SIA,[4],0.03478
same,Il10 fold change S40/SIA,[4],0.2443
same,Ilr1 fold change S40/SIA,[4],0.09556
same,Irak2 fold change S40/SIA,[4],0.4814
same,Irak3 fold change S40/SIA,[4],0.4891
same,Irf1 fold change S40/SIA,[4],0.3319
same,Irf3 fold change S40/SIA,[4],0.3241
same,Jun fold change S40/SIA,[4],0.3678
same,Ly96 fold change S40/SIA,[4],0.3878
same,Map2k4 fold change S40/SIA,[4],0.8651
same,Myd88 fold change S40/SIA,[4],0.1447
same,Nfkb2 fold change S40/SIA,[4],0.2395
same,Nfkbia fold change S40/SIA,[4],0.2445
same,Nfkbib fold change S40/SIA,[4],0.4073
same,Nr2c2 fold change S40/SIA,[4],0.5521
same,Peli1 fold change S40/SIA,[4],0.462
same,Pglyrp1 fold change S40/SIA,[4],0.2161
same,Ptgs2 fold change S40/SIA,[4],0.03786
same,Rel fold change S40/SIA,[4],0.2762
same,Ticam1 fold change S40/SIA,[4],0.59
same,Tlr2 fold change S40/SIA,[4],0.1682
same,Tlr3 fold change S40/SIA,[4],0.7859
same,Tlr4 fold change S40/SIA,[4],0.5705
same,Tlr5 fold change S40/SIA,[4],0.188
same,Tlr7 fold change S40/SIA,[4],0.09461
same,Tlr8 fold change S40/SIA,[4],0.1573
same,Tlr9 fold change S40/SIA,[4],0.05745
same,Tnf fold change S40/SIA,[4],0.271
same,Tnfaip3 fold change S40/SIA,[4],0.2367
same,Tollip fold change S40/SIA,[4],0.6335
same,Traf6 fold change S40/SIA,[4],0.511
same,Ube2v1 fold change S40/SIA,[4],0.4284
